Measurements as given in PubChem BioAssay AID336 (DTP/NCI, 2004).
“And” between values parts separate entries of the source, which are not always exact repeats. Equal entries are not always repeated. Toxic doses and inconclusive results are not listed.

System: BDF1 mice, P388/VCR leukemia ip, median survival T/C
Experiment: NCI In Vivo Anticancer Drug Screen. Data for tumor model P388 Leukemia resistant to Vincristine; NSC 67574 (intraperitoneal) in B6D2F1 (BDF1) mice
Conditions: endpoint: median survival time, higher = longer survival
Procedure: The antitumor activity of compounds was measured in mice bearing transplantable tumors. Survival or tumor size were measured and the results are expressed as the measurement made in the treated group (T) divided by the measurement made in the vehicle treated control group (C). The tumor model used in this assay is P388 Leukemia resistant to Vincristine; NSC 67574 (intraperitoneal) in B6D2F1 (BDF1) mice

[1] = dose: 2.5 mg/kg/injection, schedule: Q01DX010 (ip), vehicle: saline
[2] = dose: 10.0 mg/kg/injection, schedule: Q01DX010 (ip), vehicle: saline
[3] = dose: 20.0 mg/kg/injection, schedule: Q01DX010 (ip), vehicle: saline
[4] = dose: 125.0 mg/kg/injection, schedule: Q01DX010 (ip), vehicle: saline
[5] = dose: 250.0 mg/kg/injection, schedule: Q01DX010 (ip), vehicle: saline
[6] = dose: 5.0 mg/kg/injection, schedule: Q01DX010 (ip), vehicle: saline

CC[C@]1(O)C[C@H]2CN(CCc3c([nH]c4ccccc34)[C@@](C(=O)OC)(c3cc4c(cc3OC)N(C=O)[C@H]3[C@@](O)(C(=O)OC)[C@H](OC(C)=O)[C@]5(CC)C=CCN6CC[C@]43[C@@H]65)C2)C1
T/C (dose: 0.03 mg/kg/injection, schedule: Q01DX010 (ip), vehicle: saline): 110 % of control
T/C (dose: 0.06 mg/kg/injection, schedule: Q01DX010 (ip), vehicle: saline): 113 % of control
T/C (dose: 0.12 mg/kg/injection, schedule: Q01DX010 (ip), vehicle: saline): 114 % of control
T/C (dose: 0.36 mg/kg/injection, schedule: Q04DX003 (ip), vehicle: saline): 106 % of control
T/C (dose: 0.6 mg/kg/injection, schedule: Q04DX003 (ip), vehicle: saline): 109 % of control
T/C (dose: 1.0 mg/kg/injection, schedule: Q04DX003 (ip), vehicle: saline): 113 % of control
T/C (dose: 1.67 mg/kg/injection, schedule: Q04DX003 (ip), vehicle: saline): 107 % of control
T/C (dose: 250.0 micrograms/kg/injection, schedule: Q04DX003 (ip), vehicle: saline): 111 % of control
T/C (dose: 324.0 micrograms/kg/injection, schedule: Q04DX003 (ip), vehicle: saline): 98 % of control and 103 % of control
T/C (dose: 360.0 micrograms/kg/injection, schedule: Q04DX003 (ip), vehicle: saline): 101 % of control and 104 % of control
T/C (dose: 389.0 micrograms/kg/injection, schedule: Q04DX003 (ip), vehicle: saline): 109 % of control
T/C (dose: 432.0 micrograms/kg/injection, schedule: Q04DX003 (ip), vehicle: saline): 106 % of control
T/C (dose: 500.0 micrograms/kg/injection, schedule: Q04DX003 (ip), vehicle: saline): 107 % of control
T/C (dose: 540.0 micrograms/kg/injection, schedule: Q04DX003 (ip), vehicle: saline): 99 % of control and 104 % of control
T/C (dose: 600.0 micrograms/kg/injection, schedule: Q04DX003 (ip), vehicle: saline): 99 % of control and 103 % of control
T/C (dose: 648.0 micrograms/kg/injection, schedule: Q04DX003 (ip), vehicle: saline): 118 % of control
T/C (dose: 720.0 micrograms/kg/injection, schedule: Q04DX003 (ip), vehicle: saline): 104 % of control
T/C (dose: 900.0 micrograms/kg/injection, schedule: Q04DX003 (ip), vehicle: saline): 104 % of control and 111 % of control
T/C (dose: 1000.0 micrograms/kg/injection, schedule: Q04DX003 (ip), vehicle: saline): 95 % of control and 104 % of control and 108 % of control
T/C (dose: 1080.0 micrograms/kg/injection, schedule: Q04DX003 (ip), vehicle: saline): 113 % of control
T/C (dose: 1200.0 micrograms/kg/injection, schedule: Q04DX003 (ip), vehicle: saline): 107 % of control
T/C (dose: 1500.0 micrograms/kg/injection, schedule: Q04DX003 (ip), vehicle: saline): 99 % of control and 101 % of control
T/C (dose: 1670.0 micrograms/kg/injection, schedule: Q04DX003 (ip), vehicle: saline): 100 % of control
T/C (dose: 1800.0 micrograms/kg/injection, schedule: Q04DX003 (ip), vehicle: saline): 115 % of control
T/C (dose: 2000.0 micrograms/kg/injection, schedule: Q04DX003 (ip), vehicle: saline): 108 % of control and 111 % of control

O=c1[nH]cc(F)c(=O)[nH]1
T/C [1]: 155 % of control
T/C [2]: 200 % of control
T/C [3]: 116 % of control and 235 % of control
T/C (dose: 21.6 mg/kg/injection, schedule: Q04DX003 (ip), vehicle: saline): 154 % of control
T/C (dose: 36.0 mg/kg/injection, schedule: Q04DX003 (ip), vehicle: saline): 188 % of control
T/C (dose: 60.0 mg/kg/injection, schedule: Q04DX003 (ip), vehicle: saline): 252 % of control
T/C (dose: 100.0 mg/kg/injection, schedule: Q04DX003 (ip), vehicle: saline): 270 % of control

O=C(Nc1ccc(C2=NCCN2)cc1)c1cc(Cl)cc(C(=O)Nc2ccc(C3=NCCN3)cc2)c1
T/C (dose: 140.0 mg/kg/injection, schedule: Q01DX010 (ip), vehicle: saline): 100 % of control
T/C (dose: 210.0 mg/kg/injection, schedule: Q01DX010 (ip), vehicle: saline): 109 % of control
T/C (dose: 315.0 mg/kg/injection, schedule: Q01DX010 (ip), vehicle: saline): 100 % of control

CC(=O)O[C@H]1C(=O)[C@@]2(C)[C@H]([C@H](OC(=O)c3ccccc3)[C@]3(O)C[C@H](OC(=O)[C@H](O)[C@@H](NC(=O)c4ccccc4)c4ccccc4)C(C)=C1C3(C)C)[C@]1(OC(C)=O)CO[C@@H]1C[C@@H]2O
T/C (dose: 21.6 mg/kg/injection, schedule: Q04DX003 (ip), vehicle: Klucel (hydroxypropylcellulose) (HPC)): 98 % of control
T/C (dose: 36.0 mg/kg/injection, schedule: Q04DX003 (ip), vehicle: Klucel (hydroxypropylcellulose) (HPC)): 93 % of control
T/C (dose: 60.0 mg/kg/injection, schedule: Q04DX003 (ip), vehicle: Klucel (hydroxypropylcellulose) (HPC)): 87 % of control

CC(CCC(C)OS(C)(=O)=O)OS(C)(=O)=O (stereo not drawn)
T/C (dose: 2.0 mg/kg/injection, schedule: Q01DX010 (ip), vehicle: saline): 100 % of control
T/C (dose: 4.0 mg/kg/injection, schedule: Q01DX010 (ip), vehicle: saline): 96 % of control
T/C (dose: 8.0 mg/kg/injection, schedule: Q01DX010 (ip), vehicle: saline): 96 % of control and 100 % of control
T/C (dose: 16.0 mg/kg/injection, schedule: Q01DX010 (ip), vehicle: saline): 100 % of control and 112 % of control
T/C (dose: 32.0 mg/kg/injection, schedule: Q01DX010 (ip), vehicle: saline): 90 % of control

COC(=O)[C@@]12OC[C@]34[C@H]([C@@H](O)[C@@H]1O)[C@@]1(C)CC(=O)C(O)=C(C)[C@@H]1C[C@H]3OC(=O)[C@H](OC(=O)/C=C(\C)C(C)C)[C@@H]24
T/C (dose: 389.0 micrograms/kg/injection, schedule: Q01DX004 (ip), vehicle: saline + alcohol): 103 % of control
T/C (dose: 432.0 micrograms/kg/injection, schedule: Q01DX009 (ip), vehicle: saline + alcohol): 98 % of control
T/C (dose: 648.0 micrograms/kg/injection, schedule: Q01DX004 (ip), vehicle: saline + alcohol): 109 % of control
T/C (dose: 720.0 micrograms/kg/injection, schedule: Q01DX009 (ip), vehicle: saline + alcohol): 100 % of control

c1ccc(CCSc2ncnc3nc[nH]c23)cc1
T/C (dose: 62.5 mg/kg/injection, schedule: Q01DX010 (ip), vehicle: saline): 88 % of control
T/C [4]: 88 % of control
T/C [5]: 96 % of control
T/C (dose: 500.0 mg/kg/injection, schedule: Q01DX010 (ip), vehicle: saline): 107 % of control

O=C(O)CCCc1ccc(N(CCCl)CCCl)cc1
T/C (dose: 3.13 mg/kg/injection, schedule: Q01DX010 (ip), vehicle: saline): 92 % of control and 104 % of control
T/C (dose: 6.25 mg/kg/injection, schedule: Q01DX010 (ip), vehicle: saline): 100 % of control
T/C (dose: 12.5 mg/kg/injection, schedule: Q01DX010 (ip), vehicle: saline): 152 % of control

COC(=O)Nc1nc2ccc(C(=O)c3cccs3)cc2[nH]1
T/C (dose: 21.6 mg/kg/injection, schedule: Q04DX003 (ip), vehicle: other): 151 % of control
T/C (dose: 36.0 mg/kg/injection, schedule: Q04DX003 (ip), vehicle: other): 242 % of control
T/C (dose: 60.0 mg/kg/injection, schedule: Q04DX003 (ip), vehicle: other): 189 % of control

CC(CN1CC(=O)NC(=O)C1)N1CC(=O)NC(=O)C1 (stereo not drawn)
T/C (dose: 108.0 mg/kg/injection, schedule: Q04DX003 (ip), vehicle: Klucel (hydroxypropylcellulose) (HPC)): 120 % of control
T/C (dose: 240.0 mg/kg/injection, schedule: Q04DX003 (ip), vehicle: Klucel (hydroxypropylcellulose) (HPC)): 151 % of control
T/C (dose: 300.0 mg/kg/injection, schedule: Q04DX003 (ip), vehicle: alkali diluted with saline): 174 % of control
T/C (dose: 400.0 mg/kg/injection, schedule: Q04DX003 (ip), vehicle: Klucel (hydroxypropylcellulose) (HPC)): 180 % of control
T/C (dose: 500.0 mg/kg/injection, schedule: Q04DX003 (ip), vehicle: alkali diluted with saline): 109 % of control

CN(C)c1ccc(/C=C/c2ccnc3ccccc23)cc1
T/C [6]: 92 % of control and 104 % of control
T/C [2]: 88 % of control and 96 % of control
T/C [3]: 104 % of control
T/C (dose: 40.0 mg/kg/injection, schedule: Q01DX010 (ip), vehicle: saline): 96 % of control and 100 % of control

CC1CN1P(=S)(N1CC1C)N1CC1C (stereo not drawn)
T/C (dose: 1.25 mg/kg/injection, schedule: Q01DX010 (ip), vehicle: saline): 93 % of control
T/C [1]: 96 % of control and 100 % of control
T/C [6]: 100 % of control
T/C [2]: 93 % of control and 107 % of control

S=P(N1CC1)(N1CC1)N1CC1
T/C (dose: 0.75 mg/kg/injection, schedule: Q01DX010 (ip), vehicle: saline): 91 % of control and 95 % of control
T/C (dose: 1.5 mg/kg/injection, schedule: Q01DX010 (ip), vehicle: saline): 91 % of control
T/C (dose: 3.0 mg/kg/injection, schedule: Q01DX010 (ip), vehicle: saline): 95 % of control
T/C (dose: 6.0 mg/kg/injection, schedule: Q01DX010 (ip), vehicle: saline): 91 % of control and 104 % of control

COc1cc(-c2ccc(Nc3ccccc3C(=O)O)c(OC)c2)ccc1Nc1ccccc1C(=O)O
T/C (dose: 100.0 mg/kg/injection, schedule: Q01DX010 (ip), vehicle: saline): 150 % of control

CCOC(=O)NP(=O)(N1CC1(C)C)N1CC1(C)C (stereo not drawn)
T/C (dose: 31.3 mg/kg/injection, schedule: Q01DX010 (ip), vehicle: saline): 117 % of control
T/C [4]: 185 % of control
T/C [5]: 246 % of control
